Reference: patent US11191754B2, “Inhibitors of nucleotidyl transferases and uses in herpes and hepatitis viral infections therefor” (Saint Louis University, priority 2015, dated 2021)

Key:
[1] = test system: HBV; assay: Chou-Talalay combination analysis with Lamivudine against HBV replication; type: cell-based, hepatitis B virus; conditions: together with Lamivudine; CI <1.0 indicates synergy
From the text: Current nucleos(t)ide analog therapy for HBV has converted hepatitis type B from an implacably progressing illness to a controllable disease. However, patients are only very rarely cured, in part due to the incomplete inhibition of HBV replication. The inventors hypothesized that the novel RNaseH inhibitors would work synergistically with the existing nucleos(t)ide analogs because the two classes of drugs target physically distinct active sites on the viral polymerase protein. […] RNAseH inhibitors from two different chemical classes were employed, compound #1 [2-hydroxyisoquinoline-1,3(2H,4H)-dione], an HID, and #46 (β-thujaplicinol), an α-hydroxytropolone, were tested. Chou-Talaly analysis yields a combination index (CI). CI values <1.0 indicate synergy, CIs of approximately 1.0 indicate additive interactions, and CI values >1.0 indicate antagonism. CI values are calculated at various efficacy levels (EC50, EC75, EC90, and EC95), and a weighted CI value favoring higher efficacy levels is also generated. FIGS. 4A & 4B show the results of four experiments employing compound #1 and three with compound #46. […] Therefore, RNAseH inhibitors act strongly synergistically with an approved nucleos(t)ide analog drug against HBV.

[2] = test system: HBV RNAseH; assay: Biochemical RNAseH assay with patient-derived variant HBV RNAseH enzymes; parameters: species or system hepatitis B virus; conditions: four genotype D patient-derived enzymes; compound at its IC50 (FIGS. 5A & 5B)
Method: RNaseH activity was measured using an oligonucleotide-directed RNA cleavage assay as previously described in Hu, et al., Tavis, et al., and Cai, et al. (2013; 2013; and 2014, respectfully). Briefly, 6 μL protein extract was mixed on ice with an internally ^32P-labeled 264 nt RNA derived from the Duck Hepatitis B Virus genome (DRF+ RNA) plus 3 μg oligonucleotide D2507- or its inverse-complement oligonucleotide D2526+ as a negative control. This mixture was incubated with test compounds in 50 mM Tris pH 8.0, 190 mM NaCl, 5 mM MgCl2, 3.5 mM DTT, 0.05% NP40, 6% glycerol, and 1% DMSO at 42° C. for 90 minutes. Cleavage products were resolved by denaturing polyacrylamide gel electrophoresis, detected by autoradiography, and quantified using ImageJ. Non-specific background values were determined from the incorrect oligonucleotide negative control lane and subtracted from all experimental values. IC50 values were then calculated with GraphPad Prism using three-parameter log(inhibitor) vs. response non-linear curve fitting with the curve minimum set to zero to reflect background subtraction.
HBV has 8 genotypes differing in sequence by 8%. Genetic diversity in the RNAseH domain is about 6%, which is easily high enough to modulate viral sensitivity to RNAseH inhibitors. […]

[3] = test system: HBV; conditions: HBV patients; cited from earlier work

| Compound | weighted combination index (CI) [1] | inhibition of HBV RNAseH [2] | sustained clinical improvement [3] |
| --- | --- | --- | --- |
| CC(C)c1ccc(O)c(=O)c(O)c1 [#46, β-thujaplicinol] | 0.44±0.3 | about 50% |  |
| Interferon α |  |  | 20-30 % of patients |
